25 molecules from US4536346A, “Aralkanamidophenyl compounds” (American Cyanamid Company, priority 1983, dated 1985) can be followed below.

The structures appear in SMILES notation.

The target in this test is T1, fatty acyl CoA: cholesterol acyl transferase (ACAT) (Rattus norvegicus, UniProt O70536).
T1 construct: The supernatant, containing the microsomal fraction, served as the source of the cholesterol-esterifying enzyme; from tissue; host or cells: rat adrenals (1,000 x g supernatant containing the microsomal fraction)
T1 sequence (O70536 1-545): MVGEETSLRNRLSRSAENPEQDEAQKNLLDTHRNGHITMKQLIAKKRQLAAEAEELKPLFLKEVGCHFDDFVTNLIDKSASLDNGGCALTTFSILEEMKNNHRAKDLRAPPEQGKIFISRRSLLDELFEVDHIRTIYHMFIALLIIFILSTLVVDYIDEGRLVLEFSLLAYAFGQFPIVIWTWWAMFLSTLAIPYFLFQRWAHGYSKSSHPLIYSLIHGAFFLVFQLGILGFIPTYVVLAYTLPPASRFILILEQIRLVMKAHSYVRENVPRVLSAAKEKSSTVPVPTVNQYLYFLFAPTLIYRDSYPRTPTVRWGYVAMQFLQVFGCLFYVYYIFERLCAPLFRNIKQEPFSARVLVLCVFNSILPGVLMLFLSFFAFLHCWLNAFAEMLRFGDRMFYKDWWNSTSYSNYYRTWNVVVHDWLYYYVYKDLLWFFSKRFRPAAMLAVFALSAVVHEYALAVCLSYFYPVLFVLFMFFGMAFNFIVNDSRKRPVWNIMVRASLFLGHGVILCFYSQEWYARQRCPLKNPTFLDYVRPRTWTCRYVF
In words: Inhibition of enzymatic esterification of cholesterol (ACAT) in rat adrenal supernatant containing the microsomal fraction. The settings on record: final concentration of test compound 5.2 μg./ml., percent inhibition of the ACAT enzyme compared to control values. It counts as biochemical. The protocol: The compounds of the present invention were tested for their ability to inhibit the enzymatic esterification of cholesterol according to the following procedure:
Rat adrenals were homogenized in 0.2M monobasic potassium phosphate buffer, pH 7.4, and centrifuged at 1,000 times gravity for 15 minutes at 5° C. The supernatant, containing the microsomal fraction, served as the source of the cholesterol-esterifying enzyme, fatty acyl CoA: cholesterol acyl transferase (ACAT). A mixture comprising 50 parts of adrenal supernatant, 10 parts of albumin (BSA) (50 mg./ml.), […], 3 parts of test compound, and 500 parts of buffer was pre-incubated at 37° C. for 10 minutes. After treatment with 20 parts of oleoyl CoA (^14 C-0.4 μCi), the mixture was incubated at 37° C. for 10 minutes. A control mixture, omitting the test compound, was prepared and treated in the same manner. The lipids from the incubation mixture were extracted into an organic solvent and separated by thin-layer chromatography. The cholesterol ester fraction was counted in a scintillation counter. This procedure is a modification of that described by Hashimoto, et al., Life Scie., 12 (Part II), 1-12 (1973).
The results of this test on representative compounds of this invention appear in Table I. The final concentration of the test compound was 5.2 μg./ml., and the effectiveness of the compound is expressed as percent inhibition of the ACAT enzyme compared to control values.
For orientation: inhibition means the percentage by which the read-out fell short of the control. A higher inhibition goes with a response far below the control. As for `CCOC(=O)c1ccc(NC(=O)CC(c2ccc(OC)cc2)c2ccc(OC)cc2)cc1` [Ethyl 4'-[3,3-bis(4-methoxyphenyl)propionamido]benzoate], the inhibition at 5.2 µg/mL came out at 91%.
Turning to `CCOC(=O)c1ccc(NC(=O)CC(c2ccc(Cl)cc2)c2ccc(Cl)cc2)cc1` [4-[3,3-Bis(p-chlorophenyl)propionamido]benzoic acid, ethyl ester], 5.2 µg/mL produced 94% inhibition.
In the case of `CCOC(=O)c1ccc(NC(=O)CCc2ccc(Cl)cc2)cc1` [4-(p-Chlorohydrocinnamamido)benzoic acid, ethyl ester] it was 30%.
The result for `CCOC(=O)c1ccc(NC(=O)C=C(C)c2ccc(Cl)c(Cl)c2)cc1` [4-(3,4-Dichlorophenyl-β-methylacrylamido)benzoic acid, ethyl ester] reads 74%.
The result for `COc1ccc(C(CC(=O)Nc2ccc(C(=O)O)cc2)c2ccc(OC)cc2)cc1` [4'-[3,3-Bis(4-methoxyphenyl)propionamido]benzoic acid] reads 45%; that for `CCOC(=O)c1ccc(NC(=O)C=C(c2ccccc2)c2ccc(C)cc2)cc1` [4-(p-Methyl-β-phenylcinnamamido)benzoic acid, ethyl ester], 88%.
The molecule `CCOC(=O)c1ccc(NC(=O)C=Cc2ccc(Cl)cc2)cc1` [4-(p-Chlorocinnamamido)benzoic acid, ethyl ester] gave an inhibition at 5.2 µg/mL of 51%.
In the case of `Cc1ccc(C(CC(=O)Nc2ccccc2)c2ccc(C)cc2)cc1` [N--Phenyl-3,3-bis(p-tolyl)propionamide] it was 82%.
In the case of `Cc1ccc(C(CC(=O)Nc2ccc(C(F)(F)F)cc2)c2ccc(C)cc2)cc1` [N--(p-Trifluoromethylphenyl)-3,3-bis(p-tolyl)propionamide] it was 94%; in that of `CC(=O)c1ccc(NC(=O)C=C(c2ccc(Cl)cc2)c2ccc(Cl)cc2)cc1` [4'-Acetyl-3,3-bis(p-chlorophenyl)acrylanilide], 86%; in that of `COC(=O)c1cccc(NC(=O)C=C(c2ccc(Cl)cc2)c2ccc(Cl)cc2)c1` [3-[3,3-Bis(p-chlorophenyl)acrylamido]benzoic acid, methyl ester], 94%.
For the molecule `COC(=O)c1ccccc1NC(=O)C=C(c1ccc(Cl)cc1)c1ccc(Cl)cc1` [2-[3,3-Bis(p-chlorophenyl)acrylamido]benzoic acid, methyl ester], the inhibition at 5.2 µg/mL came to 71%.
The result for `CCOC(=O)c1ccc(NC(=O)C=C(c2ccc(C)cc2)c2ccc(C)cc2)cc1` [4-[3,3-Di-(p-tolyl)acrylamido]benzoic acid, ethyl ester] reads 97%.
On to `Cc1ccc(NC(=O)CC(c2ccc(C)cc2)c2ccc(C)cc2)cc1` [N--(p-Tolyl)-3,3-bis(p-tolyl)propionamide], for which 5.2 µg/mL produced 66% inhibition.
In the case of `COc1ccc(C=CC(=O)Nc2ccc(C(=O)O)cc2)cc1` [4-(p-Methoxycinnamamido)benzoic acid], the inhibition at 5.2 µg/mL worked out at 20%.
In the case of `O=C(C=C(c1ccc(Cl)cc1)c1ccc(Cl)cc1)Nc1cccc(C(=O)O)c1` [3 - [3,3-Bis(p-chlorophenyl)acrylamido]benzoic acid] it was 98%; in that of `COc1ccc(C(CC(=O)Nc2ccc(F)cc2)c2ccc(OC)cc2)cc1` [N--(p-Fluorophenyl)-3,3-bis(4-methoxyphenyl)propionamide], 92%; in that of `O=C(CC(c1ccc(Cl)cc1)c1ccc(Cl)cc1)Nc1ccc(F)cc1` [N--(4-Fluorophenyl)-3,3-bis(p-chlorophenyl)propionamide], 67%.
As to `COc1ccc(C(CC(=O)Nc2ccc(C)cc2)c2ccc(OC)cc2)cc1` [N--(p-Tolyl)-3,3-bis(4-methoxyphenyl)propionamide], at 5.2 µg/mL the inhibition was 97%.
The molecule `CCOC(=O)c1ccc(NC(=O)CCc2ccc(C)cc2)cc1` [4-(p-Methylhydrocinnamamido)benzoic acid, ethyl ester] came in with an inhibition at 5.2 µg/mL of 25%.
In the case of `CCOC(=O)c1ccc(NC(=O)C=C(c2ccc(OC)cc2)c2ccc(OC)cc2)cc1` [4-[3,3-Bis(p-methoxyphenyl)acrylamido]benzoic acid, ethyl ester] it was 97%; in that of `COc1ccc(C(=CC(=O)Nc2ccc(C(=O)O)cc2)c2ccc(OC)cc2)cc1` [4-[3,3-Bis(p-methoxyphenyl)acrylamido]benzoic acid], 78%; in that of `CCOC(=O)c1ccc(NC(=O)C=C(c2ccc(Br)cc2)c2ccc(Br)cc2)cc1` [4-[3,3-Bis(p-bromophenyl)acrylamido]benzoic acid, ethyl ester], 96%.
The result for `CCOC(=O)c1ccc(NC(=O)C(c2ccc(Cl)cc2)c2ccc(Cl)cc2)cc1` [4-[2,2-Bis(p-chlorophenyl)acetamido]benzoic acid, ethyl ester] reads 86%; that for `COc1ccc(C(CC(=O)Nc2ccc(C(F)(F)F)cc2)c2ccc(OC)cc2)cc1` [N--(p-Trifluoromethylphenyl)-3,3-bis(4-methoxyphenyl)propionamide], 92%.
